What was measured:
Assay type in all cases: in vivo
Conditions in all cases: 19 to 21 days
[1] = system: blackgrass (Alopecurus myosuroides); assay: Test B preemergence, blackgrass
Text: (§1) Seeds of plant species selected from blackgrass (Alopecurus myosuroides), Italian ryegrass (Lolium multiflorum), wheat, winter (winter wheat, Triticum aestivum), corn (Zea mays), large (Lg) crabgrass (Digitaria sanguinalis), giant foxtail (Setaria faberi), johnsongrass (Sorghum halepense), ragweed (common ragweed, Ambrosia elatior), soybean (Glycine max), barnyardgrass (Echinochloa crus-galli), waterhemp (common waterhemp, Amaranthus rudis), palmer pigweed (Amaranthus palmeri), and surinam grass (Brachiaria decumbens), were planted into a silt loam soil and treated preemergence with test chemicals formulated in a non-phytotoxic solvent mixture which included a surfactant.
(§2) Treated plants and controls were maintained in a greenhouse for 19 to 21 days, after which time all species were compared to controls and visually evaluated. Plant response ratings, summarized in Table B, are based on a scale of 0 to 100 where 0 is no effect and 100 is complete control.

corn (Zea mays) [2] = assay: Test B preemergence, corn
Text: as §1, §2

[3] = system: giant foxtail (Setaria faberi); assay: Test B preemergence, giant foxtail
Text: as §1, §2

[4] = system: johnsongrass (Sorghum halepense); assay: Test B preemergence, johnsongrass
Text: as §1, §2

soybean (Glycine max) [5] = assay: Test B preemergence, soybean
Text: as §1, §2

[6] = system: barnyardgrass (Echinochloa crus-galli); assay: Test B preemergence, barnyardgrass
Text: as §1, §2

[7] = system: waterhemp (common waterhemp, Amaranthus rudis); assay: Test B preemergence, waterhemp
Text: as §1, §2

[8] = system: palmer pigweed (Amaranthus palmeri); assay: Test B preemergence, palmer pigweed
Text: as §1, §2

[9] = system: surinam grass (Brachiaria decumbens); assay: Test B preemergence, surinam grass
Text: as §1, §2

corn (Zea mays) [10] = assay: Test C preemergence, corn
Text: (§3) Seeds of plant species selected from corn (Zea mays), soybean (Glycine max), velvetleaf (Abutilon theophrasti), palmer pigweed (Amaranthus palmeri), waterhemp (common waterhemp, Amaranthus rudis), surinam grass (Brachiaria decumbens), large (Lg) crabgrass (Digitaria sanguinalis), fall panicum (Panicum dichotomiflorum), giant foxtail (Setaria faberi), ragweed (common ragweed, Ambrosia elatior), barnyardgrass (Echinochloa crus-galli), E. Black Nightshade (Solanum ptycanthum), and horseweed (Conyza canadensis), were planted into a silt loam soil and treated preemergence with test chemicals formulated in a non-phytotoxic solvent mixture which included a surfactant.
(§4) Treated plants and controls were maintained in a greenhouse for 19 to 21 days, after which time all species were compared to controls and visually evaluated. Plant response ratings, summarized in Table C, are based on a scale of 0 to 100 where 0 is no effect and 100 is complete control.

soybean (Glycine max) [11] = assay: Test C preemergence, soybean
Text: as §3, §4

[12] = system: velvetleaf (Abutilon theophrasti); assay: Test C preemergence, velvetleaf
Text: as §3, §4

[13] = system: surinam grass (Brachiaria decumbens); assay: Test C preemergence, surinam grass
Text: as §3, §4

[14] = system: large (Lg) crabgrass (Digitaria sanguinalis); assay: Test C preemergence, large crabgrass
Text: as §3, §4

[15] = system: fall panicum (Panicum dichotomiflorum); assay: Test C preemergence, fall panicum
Text: as §3, §4

[16] = system: giant foxtail (Setaria faberi); assay: Test C preemergence, giant foxtail
Text: as §3, §4

[17] = system: barnyardgrass (Echinochloa crus-galli); assay: Test C preemergence, barnyardgrass
Text: as §3, §4

[18] = system: E. Black Nightshade (Solanum ptycanthum); assay: Test C preemergence, E. Black Nightshade
Text: as §3, §4

CN1C[C@H](c2cc(C(F)(F)F)n(C)n2)[C@@H](C(=O)Nc2cccc(F)c2F)C1=O [Compound 13, (3S,4R)—N-(2,3-difluorophenyl)-1-methyl-4-[1-methyl-5-(trifluoromethyl)-1H-pyrazol-3-yl]-2-oxo-3-pyrrolidinecarboxamide]
Plant response rating (0 no effect, 100 complete control) Blackgrass ([1]; 16 g ai/ha Preemergence): 0
Plant response rating (0 no effect, 100 complete control) Blackgrass ([1]; 31 g ai/ha Preemergence): 0
Plant response rating (0 no effect, 100 complete control) Blackgrass ([1]; 62 g ai/ha Preemergence): 13
Plant response rating (0 no effect, 100 complete control) Blackgrass ([1]; 125 g ai/ha Preemergence): 18
Plant response rating (0 no effect, 100 complete control) Corn (corn (Zea mays) [2]; 16 g ai/ha Preemergence): 3
Plant response rating (0 no effect, 100 complete control) Corn (corn (Zea mays) [2]; 31 g ai/ha Preemergence): 5
Plant response rating (0 no effect, 100 complete control) Corn (corn (Zea mays) [2]; 62 g ai/ha Preemergence): 13
Plant response rating (0 no effect, 100 complete control) Corn (corn (Zea mays) [2]; 125 g ai/ha Preemergence): 48
Plant response rating (0 no effect, 100 complete control) Foxtail, Giant ([3]; 16 g ai/ha Preemergence): 90
Plant response rating (0 no effect, 100 complete control) Foxtail, Giant ([3]; 31 g ai/ha Preemergence): 95
Plant response rating (0 no effect, 100 complete control) Foxtail, Giant ([3]; 62 g ai/ha Preemergence): 98
Plant response rating (0 no effect, 100 complete control) Foxtail, Giant ([3]; 125 g ai/ha Preemergence): 98
Plant response rating (0 no effect, 100 complete control) Johnsongrass ([4]; 16 g ai/ha Preemergence): 0
Plant response rating (0 no effect, 100 complete control) Johnsongrass ([4]; 31 g ai/ha Preemergence): 8
Plant response rating (0 no effect, 100 complete control) Johnsongrass ([4]; 62 g ai/ha Preemergence): 15
Plant response rating (0 no effect, 100 complete control) Johnsongrass ([4]; 125 g ai/ha Preemergence): 55
Plant response rating (0 no effect, 100 complete control) Soybean (soybean (Glycine max) [5]; 16 g ai/ha Preemergence): 0
Plant response rating (0 no effect, 100 complete control) Soybean (soybean (Glycine max) [5]; 31 g ai/ha Preemergence): 0
Plant response rating (0 no effect, 100 complete control) Soybean (soybean (Glycine max) [5]; 62 g ai/ha Preemergence): 0
Plant response rating (0 no effect, 100 complete control) Soybean (soybean (Glycine max) [5]; 125 g ai/ha Preemergence): 8
Plant response rating (0 no effect, 100 complete control) Barnyardgrass ([6]; 16 g ai/ha Preemergence): 85
Plant response rating (0 no effect, 100 complete control) Barnyardgrass ([6]; 31 g ai/ha Preemergence): 95
Plant response rating (0 no effect, 100 complete control) Barnyardgrass ([6]; 62 g ai/ha Preemergence): 95
Plant response rating (0 no effect, 100 complete control) Barnyardgrass ([6]; 125 g ai/ha Preemergence): 97
Plant response rating (0 no effect, 100 complete control) Waterhemp ([7]; 16 g ai/ha Preemergence): 0
Plant response rating (0 no effect, 100 complete control) Waterhemp ([7]; 31 g ai/ha Preemergence): 0
Plant response rating (0 no effect, 100 complete control) Waterhemp ([7]; 62 g ai/ha Preemergence): 0
Plant response rating (0 no effect, 100 complete control) Waterhemp ([7]; 125 g ai/ha Preemergence): 15
Plant response rating (0 no effect, 100 complete control) Pigweed, Palmer ([8]; 16 g ai/ha Preemergence): 0
Plant response rating (0 no effect, 100 complete control) Pigweed, Palmer ([8]; 31 g ai/ha Preemergence): 0
Plant response rating (0 no effect, 100 complete control) Pigweed, Palmer ([8]; 62 g ai/ha Preemergence): 0
Plant response rating (0 no effect, 100 complete control) Pigweed, Palmer ([8]; 125 g ai/ha Preemergence): 0
Plant response rating (0 no effect, 100 complete control) Surinam Grass ([9]; 16 g ai/ha Preemergence): 65
Plant response rating (0 no effect, 100 complete control) Surinam Grass ([9]; 31 g ai/ha Preemergence): 78
Plant response rating (0 no effect, 100 complete control) Surinam Grass ([9]; 62 g ai/ha Preemergence): 95
Plant response rating (0 no effect, 100 complete control) Surinam Grass ([9]; 125 g ai/ha Preemergence): 93
Plant response rating (0 no effect, 100 complete control) Corn (corn (Zea mays) [10]; 4 g ai/ha Preemergence): 0
Plant response rating (0 no effect, 100 complete control) Corn (corn (Zea mays) [10]; 8 g ai/ha Preemergence): 0
Plant response rating (0 no effect, 100 complete control) Corn (corn (Zea mays) [10]; 16 g ai/ha Preemergence): 0
Plant response rating (0 no effect, 100 complete control) Corn (corn (Zea mays) [10]; 31 g ai/ha Preemergence): 0
Plant response rating (0 no effect, 100 complete control) Corn (corn (Zea mays) [10]; 62 g ai/ha Preemergence): 0
Plant response rating (0 no effect, 100 complete control) Corn (corn (Zea mays) [10]; 125 g ai/ha Preemergence): 15
Plant response rating (0 no effect, 100 complete control) Soybean (soybean (Glycine max) [11]; 4 g ai/ha Preemergence): 0
Plant response rating (0 no effect, 100 complete control) Soybean (soybean (Glycine max) [11]; 8 g ai/ha Preemergence): 0
Plant response rating (0 no effect, 100 complete control) Soybean (soybean (Glycine max) [11]; 16 g ai/ha Preemergence): 0
Plant response rating (0 no effect, 100 complete control) Soybean (soybean (Glycine max) [11]; 31 g ai/ha Preemergence): 0
Plant response rating (0 no effect, 100 complete control) Soybean (soybean (Glycine max) [11]; 62 g ai/ha Preemergence): 0
Plant response rating (0 no effect, 100 complete control) Soybean (soybean (Glycine max) [11]; 125 g ai/ha Preemergence): 0
Plant response rating (0 no effect, 100 complete control) Velvetleaf ([12]; 4 g ai/ha Preemergence): 0
Plant response rating (0 no effect, 100 complete control) Velvetleaf ([12]; 8 g ai/ha Preemergence): 0
Plant response rating (0 no effect, 100 complete control) Velvetleaf ([12]; 16 g ai/ha Preemergence): 0
Plant response rating (0 no effect, 100 complete control) Velvetleaf ([12]; 31 g ai/ha Preemergence): 0
Plant response rating (0 no effect, 100 complete control) Velvetleaf ([12]; 62 g ai/ha Preemergence): 0
Plant response rating (0 no effect, 100 complete control) Velvetleaf ([12]; 125 g ai/ha Preemergence): 0
Plant response rating (0 no effect, 100 complete control) Surinam Grass ([13]; 4 g ai/ha Preemergence): 30
Plant response rating (0 no effect, 100 complete control) Surinam Grass ([13]; 8 g ai/ha Preemergence): 30
Plant response rating (0 no effect, 100 complete control) Surinam Grass ([13]; 16 g ai/ha Preemergence): 58
Plant response rating (0 no effect, 100 complete control) Surinam Grass ([13]; 31 g ai/ha Preemergence): 90
Plant response rating (0 no effect, 100 complete control) Surinam Grass ([13]; 62 g ai/ha Preemergence): 89
Plant response rating (0 no effect, 100 complete control) Surinam Grass ([13]; 125 g ai/ha Preemergence): 99
Plant response rating (0 no effect, 100 complete control) Crabgrass, Large ([14]; 4 g ai/ha Preemergence): 70
Plant response rating (0 no effect, 100 complete control) Crabgrass, Large ([14]; 8 g ai/ha Preemergence): 89
Plant response rating (0 no effect, 100 complete control) Crabgrass, Large ([14]; 16 g ai/ha Preemergence): 98
Plant response rating (0 no effect, 100 complete control) Crabgrass, Large ([14]; 31 g ai/ha Preemergence): 98
Plant response rating (0 no effect, 100 complete control) Crabgrass, Large ([14]; 62 g ai/ha Preemergence): 98
Plant response rating (0 no effect, 100 complete control) Crabgrass, Large ([14]; 125 g ai/ha Preemergence): 98
Plant response rating (0 no effect, 100 complete control) Panicum ([15]; 4 g ai/ha Preemergence): 0
Plant response rating (0 no effect, 100 complete control) Panicum ([15]; 8 g ai/ha Preemergence): 0
Plant response rating (0 no effect, 100 complete control) Panicum ([15]; 16 g ai/ha Preemergence): 0
Plant response rating (0 no effect, 100 complete control) Panicum ([15]; 31 g ai/ha Preemergence): 0
Plant response rating (0 no effect, 100 complete control) Panicum ([15]; 62 g ai/ha Preemergence): 53
Plant response rating (0 no effect, 100 complete control) Panicum ([15]; 125 g ai/ha Preemergence): 48
Plant response rating (0 no effect, 100 complete control) Foxtail, Giant ([16]; 4 g ai/ha Preemergence): 0
Plant response rating (0 no effect, 100 complete control) Foxtail, Giant ([16]; 8 g ai/ha Preemergence): 55
Plant response rating (0 no effect, 100 complete control) Foxtail, Giant ([16]; 16 g ai/ha Preemergence): 73
Plant response rating (0 no effect, 100 complete control) Foxtail, Giant ([16]; 31 g ai/ha Preemergence): 88
Plant response rating (0 no effect, 100 complete control) Foxtail, Giant ([16]; 62 g ai/ha Preemergence): 95
Plant response rating (0 no effect, 100 complete control) Foxtail, Giant ([16]; 125 g ai/ha Preemergence): 95
Plant response rating (0 no effect, 100 complete control) Barnyardgrass ([17]; 4 g ai/ha Preemergence): 0
Plant response rating (0 no effect, 100 complete control) Barnyardgrass ([17]; 8 g ai/ha Preemergence): 28
Plant response rating (0 no effect, 100 complete control) Barnyardgrass ([17]; 16 g ai/ha Preemergence): 63
Plant response rating (0 no effect, 100 complete control) Barnyardgrass ([17]; 31 g ai/ha Preemergence): 68
Plant response rating (0 no effect, 100 complete control) Barnyardgrass ([17]; 62 g ai/ha Preemergence): 97
Plant response rating (0 no effect, 100 complete control) Barnyardgrass ([17]; 125 g ai/ha Preemergence): 97
Plant response rating (0 no effect, 100 complete control) Nightshade ([18]; 4 g ai/ha Preemergence): 0
Plant response rating (0 no effect, 100 complete control) Nightshade ([18]; 8 g ai/ha Preemergence): 0
Plant response rating (0 no effect, 100 complete control) Nightshade ([18]; 16 g ai/ha Preemergence): 0
Plant response rating (0 no effect, 100 complete control) Nightshade ([18]; 31 g ai/ha Preemergence): 0
Plant response rating (0 no effect, 100 complete control) Nightshade ([18]; 62 g ai/ha Preemergence): 0
Plant response rating (0 no effect, 100 complete control) Nightshade ([18]; 125 g ai/ha Preemergence): 63
